US4582847A, “4-chloro-2-phenylimidazole-5-acetic acid derivatives and use as diuretics and hypotensives” (Takeda Chemical Industries, Ltd., priority 1983, dated 1986)

How the values were obtained:
[1] = tested on: Angiotensin II (rabbit aortic vessel); test: Angiotensin II-antagonizing activity (rabbit aortic vessel); conditions: AII 4×10^-9 M, 15 min treatment
Experimental: Angiotensin II (briefly, AII)-antagonizing activity of the compound (I) of this invention (rabbit aortic vessel)
The method of preparing the aortic vessel specimens and the reaction conditions employed were as described in European Journal of Pharmacology 18, 316 (1972). AII was used in a concentration of 4×10^-9 M, and the change in isometric tension of the untreated vessel specimen was measured as control. As a test, the vessel was treated with the test compound for 15 minutes and a similar determination was made. The two results were compared and the inhibition rate was calculated by means of the following formula.
Inhibition rate (%) [formula]

[2] = tested on: dogs with renal hypertension; test: Antihypertensive action in dogs with renal hypertension; type: in vivo, beagle dog; conditions: dose 10 mg, oral; for Diastolic blood pressure after 1 hr. / Systolic blood pressure after 1 hr.: 1 hr after administration; for Diastolic blood pressure after 2 hrs. / Systolic blood pressure after 2 hrs.: 2 hrs after administration; for Diastolic blood pressure after 4 hrs. / Systolic blood pressure after 4 hrs.: 4 hrs after administration; for Diastolic blood pressure after 8 hrs. / Systolic blood pressure after 8 hrs.: 8 hrs after administration; for Diastolic blood pressure before administration / Systolic blood pressure before administration: before administration (baseline)
Text: Antihypertensive action in dogs with renal hypertension
Male adult beagle dogs were laparotomized under pentobarbital anesthesia and the left renal artery was constricted with a silver clip so as to reduce the renal blood flow to about 30%. After the operation, the animals were kept for at least 2 months and the individuals having a systolic pressure of at least about 180 mmHg were used in the test. […] Blood pressure determinations were made using a plethysmograph (Narco, DE-300). Each drug was sealed in a gelatin capsule and administered by the oral route. The blood pressure was monitored up to 8 hours after administration.

dogs = test: Diuretic action in dogs (method of W. L. Lipschitz); type: in vivo; conditions: dog, n = 3, control group = 1.00
Experimental: (§1) The test was conducted in rats and dogs, in accordance with the method of W. L. Lipschitz. The numerals in the table denote the values for the treated groups with the value for control group being taken as 1.00. [formula]

rats = test: Diuretic action in rats (method of W. L. Lipschitz); type: in vivo; conditions: rat, 30 mg/kg P.O., n = 6; control group = 1.00
Experimental: as §1

Row | Compound | Inhibition rate (%) ([1]; concentration of drug 10^-5 M) | Diastolic blood pressure after 1 hr. [2] | Systolic blood pressure after 1 hr. [2] | Diastolic blood pressure after 2 hrs. [2] | Systolic blood pressure after 2 hrs. [2] | Diastolic blood pressure after 4 hrs. [2] | Systolic blood pressure after 4 hrs. [2] | Diastolic blood pressure after 8 hrs. [2] | Systolic blood pressure after 8 hrs. [2] | Diastolic blood pressure before administration [2] | Systolic blood pressure before administration [2] | Diuretic action UK V (dogs; 3 mg/kg P.O.) | Diuretic action UNa V (dogs; 3 mg/kg P.O.) | Diuretic action UV (dogs; 3 mg/kg P.O.) | Diuretic action UK V (dogs; 30 mg/kg P.O.) | Diuretic action UNa V (dogs; 30 mg/kg P.O.) | Diuretic action UV (dogs; 30 mg/kg P.O.) | Diuretic action UK V (rats) | Diuretic action UNa V (rats) | Diuretic action UV (rats) | also measured
1 | O=C(O)Cc1c(Cl)nc(-c2ccccc2)n1Cc1ccc(O)cc1 [4-Chloro-1-(4-hydroxybenzyl)-2-phenylimidazole-5-acetic acid, reference compound] | 46% | – | – | – | – | – | – | – | – | – | – | – | – | – | – | – | – | – | – | – | –
2 | COc1ccc(Cn2c(-c3ccccc3)nc(Cl)c2CC(=O)O)cc1C [4-Chloro-1-(4-methoxy-3-methylbenzyl)-2-phenylimidazole-5-acetic acid, reference compound] | – | 113 ± 6 mmHg | 185 ± 5 mmHg | 116 ± 7 mmHg | 181 ± 6 mmHg | 115 ± 4 mmHg | 181 ± 2 mmHg | 115 ± 5 mmHg | 188 ± 5 mmHg | 123 ± 6 mmHg | 189 ± 2 mmHg | 0.86 | 1.10 | 1.20 | 2.53 | 1.73 | 1.67 | 3.33 | 6.36 | 8.25 | –
3 | Cc1cc(Cn2c(-c3ccccc3)nc(Cl)c2CC(=O)O)ccc1O [Example 1, 4-chloro-1-(4-hydroxy-3-methylbenzyl)-2-phenylimidazole-5-acetic acid] | 100% | 123 ± 4 mmHg | 189 ± 5 mmHg | 93 ± 7 mmHg | 165 ± 6 mmHg | 89 ± 7 mmHg | 155 ± 8 mmHg | 110 ± 8 mmHg | 167 ± 8 mmHg | 124 ± 2 mmHg | 201 ± 5 mmHg | 2.20 | 2.97 | 3.41 | 4.88 | 4.24 | 5.11 | – | – | – | Inhibition rate (%) ([1]; concentration of drug 10^-6 M): 75%
4 | CC(=O)Oc1ccc(Cn2c(-c3ccccc3)nc(Cl)c2CC(=O)O)cc1C [Ref. Example 3, 4-chloro-1-(4-acetoxy-3-methylbenzyl)-2-phenylimidazole-5-acetic acid] | – | – | – | – | – | – | – | – | – | – | – | – | – | – | – | – | – | 2.92 | 6.54 | 8.22 | –
5 | CCCC(=O)Oc1ccc(Cn2c(-c3ccccc3)nc(Cl)c2CC(=O)O)cc1C [Ref. Example 4, 4-chloro-1-(4-n-butyryloxy-3-methylbenzyl)-2-phenylimidazole-5-acetic acid] | – | – | – | – | – | – | – | – | – | – | – | – | – | – | – | – | – | 2.80 | 5.82 | 6.69 | –
